Our source for the IC50, change in vivo and inhibition values is US20060205772A1, “Amide derivatives and their use as inhibitors of 11-beta-hydroxysteroid dehydrogenase type I” (priority 2003, published 2006).

In test [1] the target is T1, human recombinant 11β-HSD1 (Homo sapiens, UniProt P28845).
T1 construct: made in house; host or cells: Pichia pastoris (microsomal fraction)
As to the kind of experiment: in vitro inhibition of human recombinant 11β-HSD1 (Pichia pastoris microsomes, [3H]cortisone to [3H]cortisol). The class given is biochemical. The settings on record: recombinant human 11β-HSD1 microsomes, 500 nM cortisone mixture, NADPH, 90 min at 37° C. As to the method:
The in vitro inhibition of human recombinant 11β-HSD1 is determined as follows:
Recombinant human 11β-HSD1 is expressed in yeast Pichia pastoris. Cultures are grown at 30° C. for 3 days in the presence of methanol to induce enzyme expression. The microsomal fraction overexpressing 11β-HSD1 is prepared from the cell homogenate and used as the enzyme source for primary screening. A test compound at the desired concentration is preincubated for 10 min at RT with 3 μg of the microsomal protein in 50 mM sodium phosphate, pH 7.5, in a total volume of 80 μL. The enzyme reaction is initiated by adding 20 μL of a mixture containing 5 mM NADPH, 500 nM cortisone, and 80,000 dpm of [^3H]cortisone in the same buffer and is terminated by ethyl acetate after incubation for 90 min at 37° C. The production of [^3H]cortisol is quantitated upon separation from [^3H]cortisone by a C18 column on HPLC equipped with a radioactivity detector. Glycerrhetinic acid, a known inhibitor of 11β-HSD1, is used as a standard.

The test system of test [2] is corticosterone production in adrenalectomized (ADX) mice. As to the kind of experiment: inhibition of corticosterone production in adrenalectomized (ADX) mice. Format: in vivo. The note with it: Mus musculus, po; ADX CD1 mice, orally 25 mg/kg each at 2 and 4 h before sacrifice; liver corticosterone. As to the method: Inhibition of corticosterone production in adrenalectomized (ADX) mice is determined as follows:
Bilateral adrenalectomy is performed in male mice of the CD1 strain (6 to 8 weeks of age, 25-30 g body weight) through a lumbar laparotomy. After 10 days the animals are fasted for 24 h. Compounds are administered orally at 25 mg/kg each at 2 and 4 h before sacrifice. A second group of animals receives carbenoxolone at the same dose, and a third group receives the vehicle (cornstarch). Homogenized liver samples are used to measure corticosterone concentration which is determined by radioimmunoassay and is expressed as pg of corticosterone per mg of liver protein.

The target of test [3] is T2, cellular 11β-HSD1 (Rattus norvegicus, UniProt P16232).
T2 construct: Enzyme activity is measured in the medium of primary cultures of rat hepatocytes 48 h after plating the cells; endogenous in cells; host or cells: primary hepatocytes of male Sprague-Dawley rats
The test is described as follows: inhibition of cellular 11β-HSD1 activity in primary rat hepatocytes. The class given is cell-based. The note with it: 2 h incubation. As to the method:
The inhibition of cellular 11β-HSD1 activity in primary rat hepatocytes is determined as follows:
Male Sprague-Dawley rats weighing 180-200 g are anesthetized with sodium pentobarbital (65 mg/kg). The liver is perfused in situ with calcium-free Earl's Balanced Salt Solution (EBSS) followed by EBSS containing 100-150 U/mL of collagenase, 1.8 mM CaCl2 and 10 mM HEPES, pH 7.4. The perfused liver is removed and aseptically placed in warm William's Medium E containing 10% BCS. After decapsulation, the organ is transferred to fresh medium and gently shaken to facilitate tissue dissociation and cell release. Hepatocytes are separated from nonparenchymal and dead cells by repeated low speed centrifugation. Cell viability is determined by trypan blue exclusion.
Hepatocytes are plated on collagen coated dishes at a density of 1×10^5 cells/cm^2 in William's medium E containing 10% BCS, 100 U/mL penicillin, 100 μg/mL streptomycin, 0.25 μg/mL amphotericin B, 2 mM L-glutamine, 10 mM HEPES, 100 nM insulin and 1 nM dexamethasone. After 1 h the medium is changed to serum-free William's medium E supplemented as described above. Thereafter, the medium is replaced every 24 h. The cultures are maintained in a humidified atmosphere of 5% CO2 at 37° C.
Enzyme activity is measured in the medium of primary cultures of rat hepatocytes 48 h after plating the cells. The medium is aspirated and replaced with serum-free William's medium E containing 2 nM [^3H]11-dehydrocorticosterone and a test compound and is incubated for 2 h. An aliquot of culture medium is removed at the end of the incubation and the mixture is extracted with 2 volumes of ethyl acetate, dried under vacuum and resuspended in methanol. The dissolved residues are quantitatively transferred to thin layer plates and developed in chloroform-methanol (90:10). The TLC plates are scanned on a Bioscan imaging detector and the fractional conversion of 11-dehydrocorticosterone to corticosterone is calculated. The cell layer is rinsed with cold phosphate-buffered saline and dissolved in 0.1 N NaOH/5% SDS for the determination of cellular protein (BCA, Pierce, Rockford, Ill.). Enzyme activity is expressed as pmoles of product formed per mg protein per hour.

In test [4] the target is T3, human 11β-HSD2 (Homo sapiens, UniProt P80365).
T3 construct: using lysates of SW-620 cells as the enzyme source; host or cells: SW-620 human colon carcinoma cells (lysate)
T3 sequence (P80365 1-405): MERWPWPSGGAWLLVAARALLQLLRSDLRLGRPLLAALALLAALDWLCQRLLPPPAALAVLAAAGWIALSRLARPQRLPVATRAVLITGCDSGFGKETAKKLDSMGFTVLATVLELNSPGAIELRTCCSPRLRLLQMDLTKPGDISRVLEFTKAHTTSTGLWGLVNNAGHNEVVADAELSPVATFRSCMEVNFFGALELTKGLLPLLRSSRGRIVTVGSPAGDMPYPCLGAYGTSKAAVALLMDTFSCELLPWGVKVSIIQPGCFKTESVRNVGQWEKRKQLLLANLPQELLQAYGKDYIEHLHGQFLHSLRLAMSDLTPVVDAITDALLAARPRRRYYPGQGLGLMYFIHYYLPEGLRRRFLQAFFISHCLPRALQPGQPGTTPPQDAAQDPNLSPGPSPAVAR
The test is described as follows: in vitro inhibition of human 11β-HSD2 (SW-620 cell lysates, [3H]cortisol to [3H]cortisone). The class given is biochemical. As to the method: The in vitro inhibition of human 11β-HSD2 is determined as follows:
The SW-620 human colon carcinoma cell line is obtained from the American Type Culture Collection (ATCC). Cells are plated at a density of 8-10×10^4 cells/cm^2 in DMEM/F12 containing 5% BCS, 100 U/mL penicillin, 100 μg/mL streptomycin and […] amphotericin B. Cultures are grown to 80-90% confluence in a humidified, atmosphere of 5% CO2 at 37° C. The medium is changed to serum-free, phenol red-free DMEM/F12 at 24 h before harvesting the cells.
After 24 h in serum-free medium, cultured SW-620 cells are rinsed and scraped in Kreb's-Ringer buffer, pH 7.4, containing 1 mM EDTA, 2 μg/mL aprotinin, 10 μM leupeptin and 1 μM pepstatin. After sonication (30 seconds) and low speed centrifugation (2,000 rpm, 5 min) to remove cellular debris, the supernatant is collected and used to determine enzyme activity and protein concentration (BCA, Pierce, Rockford, Ill.).
Dehydrogenase activity is quantified by measuring the conversion of [^3H]cortisol to [^3H]cortisone using lysates of SW-620 cells as the enzyme source. The assay is performed in tubes containing Kreb's-Ringer buffer pH 7.4, with 0.20 mM NAD and 200,000 dpm of [^3H]cortisol and a test compound in a total volume of 1 mL. The tubes are preincubated for 10 min at 37° C. before adding 200 μg of cell lysates to start the reaction. After incubation for 1 h at 37° C. in a shaking water bath, the mixture is extracted with 2 volumes of ethyl acetate and centrifuged for 10 min at 2,000 rpm. The organic layer is collected, dried under vacuum and resuspended in methanol. The dissolved residues are quantitatively transferred to thin layer plates and developed in chloroform-methanol (90:10). Unlabeled cortisol and cortisone were used as reference markers. The TLC plates are scanned on a Bioscan radioimaging detector (Bioscan, Washington, D.C.), and the fractional conversion of cortisol to cortisone is calculated. Enzyme activity is expressed as pmoles of product formed per mg protein per hour. Carbenoxolone and glycyrrhetinic acid are used as standards.

T2 sequence (P16232 whole entry): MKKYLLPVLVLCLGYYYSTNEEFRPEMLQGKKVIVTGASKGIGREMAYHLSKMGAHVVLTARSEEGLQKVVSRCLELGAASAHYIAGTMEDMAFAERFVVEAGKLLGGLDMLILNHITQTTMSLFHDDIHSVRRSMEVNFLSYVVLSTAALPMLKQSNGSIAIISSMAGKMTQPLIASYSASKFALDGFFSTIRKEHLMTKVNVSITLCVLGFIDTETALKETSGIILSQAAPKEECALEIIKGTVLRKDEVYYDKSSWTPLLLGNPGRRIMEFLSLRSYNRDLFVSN
T1 sequence (P28845 whole entry): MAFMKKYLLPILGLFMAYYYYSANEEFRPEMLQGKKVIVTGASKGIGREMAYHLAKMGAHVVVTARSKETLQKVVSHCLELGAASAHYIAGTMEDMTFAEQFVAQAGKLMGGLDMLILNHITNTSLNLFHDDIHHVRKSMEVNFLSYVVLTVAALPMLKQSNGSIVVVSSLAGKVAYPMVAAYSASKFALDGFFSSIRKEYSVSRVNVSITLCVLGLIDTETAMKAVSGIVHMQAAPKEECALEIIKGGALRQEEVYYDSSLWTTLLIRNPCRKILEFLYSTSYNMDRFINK

`O=C(NCc1ccc(F)cc1)N1CCc2cc(C(=O)N3CCC[C@H]4CCCC[C@H]43)ccc21` [Example 33-21]: the IC50 in test [1] stood at 262 nM. The change in vivo at 25 mg/kg in test [2] is -71%. The same compound came in with an inhibition at 1 µM in test [3] of 84%. The same compound yielded an inhibition at 10 µM in test [4] of 45%.
Take `O=C(c1ccc(-c2ccccc2[N+](=O)[O-])o1)N1CCC[C@@H]2CCCC[C@@H]21` [Example 35-15]: in test [1], the IC50 amounted to 7.7 nM. Besides, the change in vivo at 25 mg/kg in test [2] was -67%. In addition, the inhibition at 1 µM in test [3] worked out at 76%. This compound displayed an inhibition at 10 µM in test [4] of 34%.
As to `COC(=O)Nc1ccc(C(=O)N2CC[C@H]3CCCC[C@H]3C2)c(OC)c1` [Example 48-37], the IC50 in test [1] was determined as 770 nM. Besides, the change in vivo at 25 mg/kg in test [2] was -69%. Testing at 1 µM in test [3] gave an inhibition of 75%. In test [4], this compound gave an inhibition at 10 µM of 29%.
